{"source": "patent US8846845B2", "about": "“Bioabsorbable and biocompatible polyurethanes and polyamides for medical devices” (Bezwada Biomedical, LLC, priority 2005, dated 2014)", "data": [{"test": "In vitro hydrolysis of functionalized phenolics in pH 7.4 buffer at reflux, monitored by TLC", "assay_type": "physicochemical", "details": "reflux temp. (100° C.); 500 mg compound in 50 ml pH 7.4 buffer solution; TLC against original phenolic as control", "experimental": "Selected compounds were examined for the rate of hydrolysis by conducting in vitro hydrolysis studies at reflux temp. (100° C.). For each experiment, 500 mg of a func-tionalized compound and 50 ml of pH 7.4 buffer solution (purchased from Aldrich Chemical) were charged into a 100 ml round bottom flask fitted with a condenser and the contents were refluxed. In vitro hydrolysis of the functionalized phenolics was monitored by thin layer chromatography (TLC) using corresponding starting material (original phenolic) as a control. In vitro hydrolysis was continued at reflux until the functionalized molecule hydrolyzed to the starting phenolic compound.", "units": {"time in which the functionalized compound was hydrolyzed to the starting phenolic compound": "h"}, "values": [{"smiles": "Nc1ccc(OCC(=O)OCCOC(=O)COc2ccc(N)cc2)cc1", "note": "[Example 25, (4-Amino-phenoxy)-acetic acid-2-[2-(4-amino-phenoxy)-acetoxy]-ethyl ester]", "time in which the functionalized compound was hydrolyzed to the starting phenolic compound": 11.5}, {"smiles": "CC(Oc1ccc(N)cc1)C(=O)OCCOC(=O)C(C)Oc1ccc(N)cc1", "note": "(stereo not shown) [Example 32, 2-(4-Aminophenoxy)-propionic acid 2-[2-(4-aminophenoxy)-propionyloxy]-ethyl ester]", "time in which the functionalized compound was hydrolyzed to the starting phenolic compound": 40}, {"smiles": "COC(=O)COC(=O)COc1ccc(NC(C)=O)cc1", "note": "[Example 48, (4-Acetylaminophenoxy)acetic acid methoxycarbonyl methyl ester]", "time in which the functionalized compound was hydrolyzed to the starting phenolic compound": 8}, {"smiles": "COC(=O)COC(=O)COc1ccc(N)cc1", "note": "[Example 45, (4-Aminophenoxy)-acetic acid methoxycarbonylmethyl ester]", "time in which the functionalized compound was hydrolyzed to the starting phenolic compound": 3}]}]}
